Experimental data reported in US8791132B2, “Compounds and methods for treatment of hypertension” (Medivation Technologies, Inc., priority 2011, dated 2014).
Read-outs that look alike come from different tables or passages of the source.

Assays:
[1] = target: T1, human recombinant adrenergic α2A receptor (Homo sapiens, UniProt P08913); assay: Radioligand binding, adrenergic α2A ([3H]MK-912); conditions: [3H]MK-912
T1 construct: expressed in transfected cells; host or cells: insect Sf9 cells
T1 sequence (P08913 1-465): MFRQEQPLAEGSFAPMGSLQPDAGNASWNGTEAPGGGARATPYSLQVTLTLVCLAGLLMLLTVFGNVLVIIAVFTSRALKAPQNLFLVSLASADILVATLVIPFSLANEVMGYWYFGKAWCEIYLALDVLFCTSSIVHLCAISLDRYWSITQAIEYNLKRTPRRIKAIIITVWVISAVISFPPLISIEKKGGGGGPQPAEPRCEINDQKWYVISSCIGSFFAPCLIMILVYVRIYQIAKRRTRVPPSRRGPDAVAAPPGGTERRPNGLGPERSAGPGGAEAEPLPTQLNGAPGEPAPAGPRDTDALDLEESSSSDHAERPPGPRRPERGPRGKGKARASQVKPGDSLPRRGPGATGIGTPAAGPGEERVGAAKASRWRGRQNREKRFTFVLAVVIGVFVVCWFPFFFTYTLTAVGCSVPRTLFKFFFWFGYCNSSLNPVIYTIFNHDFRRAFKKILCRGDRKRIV
Summary of the method: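 Displacement of 1 nM [3H]MK-912 from receptor produced in insect Sf9 cells was measured after 60 min at 25 °C. Readout: percent inhibition of specific binding.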

[2] = target: T2, human recombinant adrenergic α2B receptor (Homo sapiens, UniProt P18089); assay: Radioligand binding, adrenergic α2B ([3H]Rauwolscine)
T2 construct: expressed in transfected cells; host or cells: CHO-K1
T2 sequence (P18089 1-450): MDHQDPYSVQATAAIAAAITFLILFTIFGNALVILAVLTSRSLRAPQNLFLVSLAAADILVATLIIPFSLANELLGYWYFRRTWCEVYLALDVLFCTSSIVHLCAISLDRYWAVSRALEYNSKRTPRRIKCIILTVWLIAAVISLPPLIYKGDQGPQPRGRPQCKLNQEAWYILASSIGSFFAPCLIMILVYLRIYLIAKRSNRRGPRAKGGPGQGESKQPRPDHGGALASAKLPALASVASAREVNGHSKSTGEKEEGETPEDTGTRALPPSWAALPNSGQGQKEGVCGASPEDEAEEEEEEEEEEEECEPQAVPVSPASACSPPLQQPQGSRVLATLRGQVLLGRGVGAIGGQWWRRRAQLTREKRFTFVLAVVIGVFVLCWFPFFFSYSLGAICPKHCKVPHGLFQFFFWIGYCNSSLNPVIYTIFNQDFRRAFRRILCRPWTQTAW
Summary of the method: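 Assay used CHO-K1-expressed human α2B receptor in Tris-HCl pH 7.4 buffer with MgCl2, EDTA and BSA; 60 min incubation at 25 °C.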

[3] = target: T3, human recombinant adrenergic α1D receptor (Homo sapiens, UniProt P25100); assay: Radioligand binding, adrenergic α1D ([3H]Prazosin); conditions: [3H]Prazosin
T3 construct: expressed in transfected cells; host or cells: HEK-293
T3 sequence (P25100 1-572): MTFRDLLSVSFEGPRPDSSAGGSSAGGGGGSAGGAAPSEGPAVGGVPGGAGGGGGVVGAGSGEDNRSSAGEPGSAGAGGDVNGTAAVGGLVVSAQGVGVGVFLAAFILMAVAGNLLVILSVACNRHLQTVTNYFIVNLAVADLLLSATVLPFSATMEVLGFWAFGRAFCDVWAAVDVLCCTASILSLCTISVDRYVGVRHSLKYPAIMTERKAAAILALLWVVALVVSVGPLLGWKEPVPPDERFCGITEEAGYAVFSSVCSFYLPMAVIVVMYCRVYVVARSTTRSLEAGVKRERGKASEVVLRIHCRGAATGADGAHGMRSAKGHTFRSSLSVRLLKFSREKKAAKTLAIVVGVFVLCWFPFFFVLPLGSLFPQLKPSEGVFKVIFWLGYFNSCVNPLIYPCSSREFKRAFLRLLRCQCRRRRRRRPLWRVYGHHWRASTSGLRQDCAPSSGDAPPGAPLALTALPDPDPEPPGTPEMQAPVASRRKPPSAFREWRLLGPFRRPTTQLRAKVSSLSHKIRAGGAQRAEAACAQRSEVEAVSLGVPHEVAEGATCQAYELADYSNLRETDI
Procedure: Compounds were incubated with 0.6 nM [3H]Prazosin for 60 min at 25° C. Non-specific binding was estimated in the presence of 10 μM phentolamine. Receptor proteins were filtered and washed, the filters were then counted to determine [3H]Prazosin specifically bound. […] Biochemical assay results are presented as the percent inhibition of specific binding in Table B1.

[4] = target: T4, rat adrenergic α1B receptor (Rattus norvegicus, UniProt P15823); assay: Radioligand binding, adrenergic α1B ([3H]Prazosin); conditions: [3H]Prazosin
T4 construct: rat adrenergic α1B receptor obtained from Wistar Rat liver; from tissue; host or cells: Wistar rat liver
T4 sequence (P15823 1-515): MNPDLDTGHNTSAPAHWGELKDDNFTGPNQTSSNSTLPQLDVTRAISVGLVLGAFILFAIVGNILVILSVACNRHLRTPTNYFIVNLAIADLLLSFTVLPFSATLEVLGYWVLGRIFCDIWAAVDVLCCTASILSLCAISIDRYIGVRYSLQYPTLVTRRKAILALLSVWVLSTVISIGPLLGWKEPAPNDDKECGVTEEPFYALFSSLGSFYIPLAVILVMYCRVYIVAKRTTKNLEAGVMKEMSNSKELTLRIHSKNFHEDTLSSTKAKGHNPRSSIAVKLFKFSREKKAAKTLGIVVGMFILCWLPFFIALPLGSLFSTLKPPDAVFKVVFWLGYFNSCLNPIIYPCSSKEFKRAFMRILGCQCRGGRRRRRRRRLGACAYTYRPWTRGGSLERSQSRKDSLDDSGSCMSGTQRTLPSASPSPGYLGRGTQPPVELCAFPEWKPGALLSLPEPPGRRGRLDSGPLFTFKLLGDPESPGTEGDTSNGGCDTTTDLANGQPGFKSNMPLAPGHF
Summary of the method: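 Rat α1B receptor from Wistar rat liver was incubated with 0.25 nM [3H]prazosin for 60 min at 25 °C in 50 mM Tris-HCl, pH 7.4, 0.5 mM EDTA. Non-specific binding was defined with 10 μM phentolamine. Bound radioligand was measured by filtration and counting, reported as percent inhibition of specific binding.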

[5] = read-out: Percentage inhibition of ligand binding, Adrenergic α2A (0.1 μM), compound at 0.1 μM, repeat datapoints each shown
[6] = read-out: Percentage inhibition of ligand binding, Adrenergic α2B (0.1 μM), compound at 0.1 μM, [3H]Rauwolscine, repeat datapoints each shown
[7] = read-out: Percentage inhibition of ligand binding, Adrenergic α1D (0.1 μM), compound at 0.1 μM, repeat datapoints each shown
[8] = read-out: Percentage inhibition of ligand binding, Adrenergic α1B (0.1 μM), compound at 0.1 μM, repeat datapoints each shown
[9] = compound at 0.1 μM, repeat assays, each datapoint shown, read-out: Percentage inhibition of ligand binding, Adrenergic α2A
[10] = compound at 0.1 μM, [3H]Rauwolscine, repeat assays, each datapoint shown, read-out: Percentage inhibition of ligand binding, Adrenergic α2B
[11] = compound at 0.1 μM, repeat assays, each datapoint shown, read-out: Percentage inhibition of ligand binding, Adrenergic α1D
[12] = compound at 0.1 μM, repeat assays, each datapoint shown, read-out: Percentage inhibition of ligand binding, Adrenergic α1B

SMILES	inhibition at 0.1 µM [1, 5] [%]	inhibition at 0.1 µM [2, 6] [%]	inhibition at 0.1 µM [3, 7] [%]	inhibition at 0.1 µM [4, 8] [%]	inhibition at 0.1 µM [1, 9] [%]	inhibition at 0.1 µM [2, 10] [%]	inhibition at 0.1 µM [3, 11] [%]	inhibition at 0.1 µM [4, 12] [%]	inhibition at 0.03 µM ([2]; compound at 0.03 μM, [3H]Rauwolscine, repeat assays, each datapoint shown, read-out: Percentage inhibition of ligand binding, Adrenergic α2B) [%]	Ki ([2]; read-out: Ki α2B) [nM]
COc1ccc(C(C)(O)Cn2c3c(c4cc(C)ccc42)CN(C)CC3)cc1F (stereo not drawn) [II-163]	41	86	28	66	–	–	–	–	–	–
COc1ccc(C(C)(O)Cn2c3c(c4cc(Cl)ccc42)C2CCC(C3)N2C)cc1F (stereo not drawn) [II-164]	15	40	0	12	–	–	–	–	–	–
CN1CCc2c(c3ccccc3n2CC(C)(O)c2ccncc2)C1 (stereo not drawn) [II-171]	96	94	55	95	–	–	–	–	–	–
Cc1ccc(CCn2c3c(c4cccnc42)CN2CCCC2C3)cn1 (stereo not drawn) [II-234]	7	33	-1	-8	–	–	–	–	–	–
Cc1cnc2c(c1)c1c(n2CCc2ccc(C)nc2)CC2CCCN2C1 (stereo not drawn) [II-235]	3	45	28	58	–	–	–	–	–	–
Cc1ccc(CCn2c3c(c4cccnc42)C2CCCN2CC3)cn1 (stereo not drawn) [IV-4]	-3	56	15	2	–	–	–	–	–	–
CN1CCc2c(c3cc(Cl)ccc3n2CC(C)(O)c2ccncc2)C1 (stereo not drawn) [compound 1]	–	–	–	–	6	74	16	32	–	–
Cc1ccc2c(c1)c1c(n2CC(C)(O)c2ccc(C)nc2)CCN(C)C1 (stereo not drawn) [compound 29]	–	–	–	–	10	100	1	24	–	–
CN1CCc2c(c3cccc(Cl)c3n2CC(C)(O)c2ccncc2)C1 (stereo not drawn) [compound 32]	–	–	–	–	28	86	7	12	–	–
CN1CCc2c(c3cc(Cl)ccc3n2CCc2cccnc2)C1 [compound 60]	–	–	–	–	26	93	35	65	66	5.84
